Reference: publication PMC4912077 (PLoS ONE, 2016)
“And” between values parts separate entries of the source, which are not always exact repeats. Equal entries are not always repeated. Structures can show the parent of a compound that is named as a salt.

Legend:
[1] = molecular target: PCP site within the NMDAR channel; test: NMDAR binding, [3H]-MK-801 displacement in rat forebrain homogenate; settings: for Ki: read-out: Ki ± SEM, [3H]-(+)-MK-801, rat forebrain, Cheng-Prusoff; for [3H]-MK-801 binding counts (Count1-3): raw counts, three counts;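 for all read-outs here: IC50 by nonlinear regression of percent specific binding versus log concentration, Ki from IC50 via Cheng-Prusoff, raw counts in CPM, duplicates repeated at least three times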
Protocol: (§3) The reaction was terminated by vacuum filtration using a 24 well cell harvester (Brandel, Gaithersburg, MD) over presoaked GF/B glass fiber filters (Brandel, Gaithersburg, MD). Filters were washed with room temperature assay buffer (3 x 5 mL). […] IC50 values were determined in Graphpad Prism 5.0 using non-linear regression with log-concentration plotted against percent specific binding. […] Ki values were calculated using the equation of Cheng and Prusoff [24]. […] Protein concentration was determined via the Bradford method using Coomassie protein assay reagent (Sigma, USA) [25] with rat albumin (Sigma, USA) as standard. Experiments were performed in duplicate and repeated a minimum of three times.

M3 = M3 (Homo sapiens, UniProt P20309); test: NIMH PDSP radioligand binding, M3
M3, sequence (P20309 whole entry): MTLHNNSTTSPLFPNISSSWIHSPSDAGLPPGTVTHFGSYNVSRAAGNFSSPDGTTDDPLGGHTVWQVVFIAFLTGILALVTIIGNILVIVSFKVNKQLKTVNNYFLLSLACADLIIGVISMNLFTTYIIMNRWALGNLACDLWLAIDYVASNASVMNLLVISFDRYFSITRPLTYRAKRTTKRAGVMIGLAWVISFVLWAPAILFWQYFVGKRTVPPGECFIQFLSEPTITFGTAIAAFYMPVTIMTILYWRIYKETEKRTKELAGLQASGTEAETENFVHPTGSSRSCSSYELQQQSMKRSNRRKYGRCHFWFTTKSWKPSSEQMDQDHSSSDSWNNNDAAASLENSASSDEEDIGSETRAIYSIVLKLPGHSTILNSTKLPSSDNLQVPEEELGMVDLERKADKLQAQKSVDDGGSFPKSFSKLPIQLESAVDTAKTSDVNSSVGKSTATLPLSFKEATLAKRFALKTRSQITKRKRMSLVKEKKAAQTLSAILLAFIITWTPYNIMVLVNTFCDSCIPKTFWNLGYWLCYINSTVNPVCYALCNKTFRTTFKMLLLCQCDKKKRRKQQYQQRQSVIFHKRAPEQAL

Human SERT = molecular target: T1, Human SERT (Homo sapiens, UniProt P31645); test: Monoamine reuptake inhibition assay, SERT in HEK293 cells; assay type: cell-based
T1 construct: expressed in transfected cells; host or cells: HEK293
T1 sequence (P31645 whole entry): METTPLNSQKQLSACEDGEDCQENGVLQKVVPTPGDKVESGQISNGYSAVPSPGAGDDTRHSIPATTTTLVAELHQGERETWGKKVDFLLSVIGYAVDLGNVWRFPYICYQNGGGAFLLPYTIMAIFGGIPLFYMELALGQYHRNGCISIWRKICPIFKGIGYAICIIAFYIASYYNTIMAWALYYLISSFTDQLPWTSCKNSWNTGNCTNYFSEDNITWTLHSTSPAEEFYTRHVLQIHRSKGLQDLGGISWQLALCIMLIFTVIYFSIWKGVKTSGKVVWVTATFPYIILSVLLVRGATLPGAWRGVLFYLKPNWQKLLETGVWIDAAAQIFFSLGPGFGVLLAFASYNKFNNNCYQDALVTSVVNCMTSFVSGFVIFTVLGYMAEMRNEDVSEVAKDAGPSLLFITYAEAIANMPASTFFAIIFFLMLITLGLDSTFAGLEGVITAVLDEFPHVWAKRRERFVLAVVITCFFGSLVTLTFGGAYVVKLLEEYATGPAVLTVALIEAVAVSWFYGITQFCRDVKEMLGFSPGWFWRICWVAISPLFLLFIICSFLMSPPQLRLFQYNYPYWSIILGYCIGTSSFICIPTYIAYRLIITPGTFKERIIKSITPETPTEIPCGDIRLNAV
Protocol: (§1) Monoamine reuptake inhibition assays were performed via the NIMH PDSP as previously described.[28] In brief, the neurotransmitter transporter uptake assay kit (R8174) (Molecular Devices) was used. Human monoamine transporters (DAT, NET and SERT) were stably expressed in HEK293 cells. Assay buffer consisted of 20 mM HEPES, 1x HBSS at pH 7.4. Cells were plated in Pol-L-Lys (PLL) coated 384-well black clear bottom cell culture plates with a density of 15,000 cells/well. Cells were incubated for at least 6 h prior to assay. Media was removed and replaced with 20 μL assay buffer and 5 μL of drug or positive control (cocaine or nisoxetine) as a 5X stock. Cells were incubated for 30 min at 37°C. 25 μL of dye solution was then added and following an additional 30 min incubation (at 37°C) fluorescence intensity was measured using a FlexStation II (bottom read mode, excitation wavelength = […], emission = 520 nM with a cutoff of 510 nM). […] Additional details are available in the NIMH PDSP assay protocol book.

Alpha2C = molecular target: T2, Alpha2C (Homo sapiens, UniProt P18825); test: NIMH PDSP radioligand binding, Alpha2C
T2 sequence (P18825 1-462): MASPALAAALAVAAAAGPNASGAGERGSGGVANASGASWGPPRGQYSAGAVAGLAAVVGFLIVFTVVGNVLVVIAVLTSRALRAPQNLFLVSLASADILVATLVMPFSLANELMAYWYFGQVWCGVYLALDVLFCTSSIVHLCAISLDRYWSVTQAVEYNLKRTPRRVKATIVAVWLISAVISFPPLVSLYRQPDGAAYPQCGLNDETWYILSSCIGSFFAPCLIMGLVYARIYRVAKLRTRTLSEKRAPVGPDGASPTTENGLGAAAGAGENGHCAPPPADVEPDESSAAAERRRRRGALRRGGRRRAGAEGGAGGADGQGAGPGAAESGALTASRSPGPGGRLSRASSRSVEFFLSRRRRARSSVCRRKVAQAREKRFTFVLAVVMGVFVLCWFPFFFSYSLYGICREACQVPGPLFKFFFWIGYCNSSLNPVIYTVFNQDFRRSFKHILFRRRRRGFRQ
Protocol: (§2) Radioligands and concentrations used for additional 45 CNS receptor binding assays are listed as supporting information (S1 Table). This work was performed by the National Institute of Mental Health Psychoactive Drug Screening Program (NIMH PDSP) as described previously.[26] Briefly target compounds were dissolved in DMSO and subjected to a primary screen at 10,000 nM concentration. […] Additional experimental details are available in the NIMH PDSP assay protocol book.

NMDAR [2] = tested on: NMDAR; design: method as in earlier work; settings: [3H]-TCP; cited from earlier work
DAT [3] = molecular target: T3, DAT (Homo sapiens, UniProt Q01959); test: NIMH PDSP radioligand binding, DAT
T3 sequence (Q01959 whole entry): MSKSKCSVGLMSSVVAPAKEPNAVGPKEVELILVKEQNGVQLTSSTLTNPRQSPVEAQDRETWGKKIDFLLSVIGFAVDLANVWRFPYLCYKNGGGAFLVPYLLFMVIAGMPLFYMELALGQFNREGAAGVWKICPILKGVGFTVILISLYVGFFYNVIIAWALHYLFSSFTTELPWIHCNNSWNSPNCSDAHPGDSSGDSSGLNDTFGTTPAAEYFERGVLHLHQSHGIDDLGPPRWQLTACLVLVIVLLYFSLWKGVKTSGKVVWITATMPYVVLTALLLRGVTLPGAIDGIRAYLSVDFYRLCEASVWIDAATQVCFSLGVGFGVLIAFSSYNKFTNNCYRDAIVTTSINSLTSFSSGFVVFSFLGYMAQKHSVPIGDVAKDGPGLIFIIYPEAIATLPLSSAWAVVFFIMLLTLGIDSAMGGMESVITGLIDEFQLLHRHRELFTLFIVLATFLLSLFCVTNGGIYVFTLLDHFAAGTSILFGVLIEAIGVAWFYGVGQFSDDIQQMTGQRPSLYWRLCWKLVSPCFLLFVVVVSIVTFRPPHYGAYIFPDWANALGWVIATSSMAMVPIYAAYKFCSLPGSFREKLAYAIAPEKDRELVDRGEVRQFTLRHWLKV
Protocol: as §2

M2 = M2 (Homo sapiens, UniProt P08172); test: NIMH PDSP radioligand binding, M2
M2, sequence (P08172 whole entry): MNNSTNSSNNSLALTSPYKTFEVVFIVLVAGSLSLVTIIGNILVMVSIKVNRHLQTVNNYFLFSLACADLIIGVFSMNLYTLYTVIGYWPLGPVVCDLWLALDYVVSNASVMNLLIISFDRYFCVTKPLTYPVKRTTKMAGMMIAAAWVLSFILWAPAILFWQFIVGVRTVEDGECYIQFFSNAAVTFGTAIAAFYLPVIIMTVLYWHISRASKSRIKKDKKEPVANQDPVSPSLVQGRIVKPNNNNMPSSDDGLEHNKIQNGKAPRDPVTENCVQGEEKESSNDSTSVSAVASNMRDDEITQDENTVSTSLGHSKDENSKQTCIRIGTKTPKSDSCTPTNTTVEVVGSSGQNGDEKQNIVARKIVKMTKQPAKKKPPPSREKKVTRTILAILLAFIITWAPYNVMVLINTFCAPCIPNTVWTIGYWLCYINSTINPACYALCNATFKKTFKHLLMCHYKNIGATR

NET [4] = molecular target: T4, NET (Homo sapiens, UniProt P23975); test: Monoamine reuptake inhibition assay, NET in HEK293 cells; assay type: cell-based; design: expressed in transfected cells; host or cells: HEK293; settings: for Hill slope NET reuptake inhibition: HEK293 cells
T4 sequence (P23975 whole entry): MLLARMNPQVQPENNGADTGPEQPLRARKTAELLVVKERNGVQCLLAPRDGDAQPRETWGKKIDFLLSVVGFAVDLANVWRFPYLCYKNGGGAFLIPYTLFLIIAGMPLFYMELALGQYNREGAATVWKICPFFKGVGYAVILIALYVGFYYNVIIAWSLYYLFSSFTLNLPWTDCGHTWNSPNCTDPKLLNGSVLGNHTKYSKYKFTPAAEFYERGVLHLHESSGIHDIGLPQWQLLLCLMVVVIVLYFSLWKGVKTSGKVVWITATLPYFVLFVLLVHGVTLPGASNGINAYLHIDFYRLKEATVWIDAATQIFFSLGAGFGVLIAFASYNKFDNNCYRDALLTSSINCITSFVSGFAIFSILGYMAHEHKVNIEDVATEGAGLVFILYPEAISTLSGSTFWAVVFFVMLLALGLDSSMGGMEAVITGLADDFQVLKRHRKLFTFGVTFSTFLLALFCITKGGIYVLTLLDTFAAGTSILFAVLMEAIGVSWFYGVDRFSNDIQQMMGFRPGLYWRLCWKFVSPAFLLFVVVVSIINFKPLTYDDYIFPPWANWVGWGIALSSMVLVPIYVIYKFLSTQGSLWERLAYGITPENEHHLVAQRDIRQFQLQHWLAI
Protocol: as §1

M1 = M1 (Homo sapiens, UniProt P11229); test: NIMH PDSP radioligand binding, M1
M1, sequence (P11229 whole entry): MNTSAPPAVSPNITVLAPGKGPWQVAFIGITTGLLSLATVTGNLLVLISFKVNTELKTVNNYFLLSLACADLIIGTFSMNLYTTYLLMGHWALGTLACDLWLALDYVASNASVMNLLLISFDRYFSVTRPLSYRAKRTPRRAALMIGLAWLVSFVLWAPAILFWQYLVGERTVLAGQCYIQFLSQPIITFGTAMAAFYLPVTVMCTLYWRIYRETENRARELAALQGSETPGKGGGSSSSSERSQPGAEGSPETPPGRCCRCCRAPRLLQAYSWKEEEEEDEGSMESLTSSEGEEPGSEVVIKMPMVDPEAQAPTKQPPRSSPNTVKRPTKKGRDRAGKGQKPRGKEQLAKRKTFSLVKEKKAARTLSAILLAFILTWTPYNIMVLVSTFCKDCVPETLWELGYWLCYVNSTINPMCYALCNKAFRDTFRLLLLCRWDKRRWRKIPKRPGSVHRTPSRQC

KOR = KOR (Homo sapiens, UniProt P41145); test: NIMH PDSP radioligand binding, KOR
KOR, sequence (P41145 whole entry): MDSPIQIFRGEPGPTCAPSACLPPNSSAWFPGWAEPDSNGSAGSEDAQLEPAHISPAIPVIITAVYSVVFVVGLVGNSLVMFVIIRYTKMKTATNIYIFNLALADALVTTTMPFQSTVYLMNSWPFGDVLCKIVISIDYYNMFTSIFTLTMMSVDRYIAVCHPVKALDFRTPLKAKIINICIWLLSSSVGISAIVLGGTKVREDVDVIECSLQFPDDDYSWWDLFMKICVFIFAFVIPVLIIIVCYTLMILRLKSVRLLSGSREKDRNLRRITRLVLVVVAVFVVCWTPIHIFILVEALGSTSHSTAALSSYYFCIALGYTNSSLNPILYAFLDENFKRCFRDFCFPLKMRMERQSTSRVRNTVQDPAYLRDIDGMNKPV
Protocol: as §2

MOR = MOR (Homo sapiens, UniProt P35372); test: NIMH PDSP radioligand binding, MOR
Protocol: as §2

DAT [5] = molecular target: T3, DAT; test: Monoamine reuptake inhibition assay, DAT in HEK293 cells; assay type: cell-based; design: expressed in transfected cells; host or cells: HEK293; settings: for Hill slope DAT reuptake inhibition: HEK293 cells
Protocol: as §1

[6] = tested on: PCP site within the NMDAR channel;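 note: IC50 by nonlinear regression of percent specific binding versus log concentration, Ki from IC50 via Cheng-Prusoff, raw counts in CPM, duplicates repeated at least three times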
Protocol: as §3

M4 = M4 (Homo sapiens, UniProt P08173); test: NIMH PDSP radioligand binding, M4
Alpha2A = Alpha2A (Homo sapiens, UniProt P08913); test: NIMH PDSP radioligand binding, Alpha2A
Protocol: as §2

Sigma 2 = molecular target: T5, Sigma 2 (Rattus norvegicus, UniProt Q5U3Y7); test: NIMH PDSP radioligand binding, Sigma 2
T5 sequence (Q5U3Y7 1-176): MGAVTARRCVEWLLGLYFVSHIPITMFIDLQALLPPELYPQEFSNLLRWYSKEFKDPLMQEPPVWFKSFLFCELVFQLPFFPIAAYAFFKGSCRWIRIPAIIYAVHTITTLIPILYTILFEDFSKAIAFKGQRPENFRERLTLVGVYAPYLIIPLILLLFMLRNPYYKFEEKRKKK
Protocol: as §2

M5 = M5 (Homo sapiens, UniProt P08912); test: NIMH PDSP radioligand binding, M5
M5, sequence (P08912 whole entry): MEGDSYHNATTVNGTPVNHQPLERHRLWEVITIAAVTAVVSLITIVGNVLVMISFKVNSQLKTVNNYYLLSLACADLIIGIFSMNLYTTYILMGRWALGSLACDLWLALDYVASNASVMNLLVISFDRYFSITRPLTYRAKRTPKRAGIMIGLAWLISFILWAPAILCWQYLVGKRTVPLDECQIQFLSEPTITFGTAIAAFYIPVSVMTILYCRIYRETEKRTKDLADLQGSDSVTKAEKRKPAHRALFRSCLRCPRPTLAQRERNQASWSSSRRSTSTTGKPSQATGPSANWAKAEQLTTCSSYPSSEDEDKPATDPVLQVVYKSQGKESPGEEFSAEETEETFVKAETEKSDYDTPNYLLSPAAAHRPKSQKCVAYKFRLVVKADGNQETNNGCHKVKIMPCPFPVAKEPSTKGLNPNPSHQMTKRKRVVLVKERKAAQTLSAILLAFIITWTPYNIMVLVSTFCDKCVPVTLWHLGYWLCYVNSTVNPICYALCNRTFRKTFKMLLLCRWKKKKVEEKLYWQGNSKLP

H3 = H3 (Homo sapiens, UniProt Q9Y5N1); test: NIMH PDSP radioligand binding, H3
H3, sequence (Q9Y5N1 whole entry): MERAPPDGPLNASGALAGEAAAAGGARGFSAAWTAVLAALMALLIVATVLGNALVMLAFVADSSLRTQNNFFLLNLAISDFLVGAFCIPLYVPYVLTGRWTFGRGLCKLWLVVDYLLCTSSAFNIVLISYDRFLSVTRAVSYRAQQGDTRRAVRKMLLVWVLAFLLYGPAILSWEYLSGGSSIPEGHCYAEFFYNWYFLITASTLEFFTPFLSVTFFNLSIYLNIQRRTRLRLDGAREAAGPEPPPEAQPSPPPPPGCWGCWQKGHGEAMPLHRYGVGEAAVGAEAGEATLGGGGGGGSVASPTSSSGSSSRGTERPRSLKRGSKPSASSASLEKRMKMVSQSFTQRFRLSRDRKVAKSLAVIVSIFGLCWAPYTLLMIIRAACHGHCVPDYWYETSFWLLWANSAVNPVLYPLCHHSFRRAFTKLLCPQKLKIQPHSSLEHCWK
Protocol: as §2

H1 = H1 (Homo sapiens, UniProt P35367); test: NIMH PDSP radioligand binding, H1
Protocol: as §2

NET [7] = molecular target: T4, NET; test: NIMH PDSP radioligand binding, NET
Protocol: as §2

NMDAR [8] = settings: [3H]-MK-801, rat cortex and hippocampus membranes; read-out: NMDAR affinity; cited from earlier work
NMDA receptor = test: NMDA receptor-mediated fEPSP (NMDAR-fEPSP) in CA1 of hippocampal slices; assay type: cell-based, rat; settings: 10 μM
Protocol: Male Wistar rats (Crl:Wi; Charles River, UK) aged 9–10 wk were sacrificed by neck vertebral dislocation (schedule 1 method) according to the United Kingdom (Scientific Procedures) Act of 1986. […] The brain was cut parasagittally into 400 μm sections and hippocampal slices were removed, stored and placed in a submerged recording chamber at 28–30°C. Recordings of synaptic activity were made, analyzed and presented as described. A bipolar electrode was used to deliver stimuli (0.03 Hz) to the Schaffer collateral pathway to enable recording of field excitatory synaptic potentials (fEPSPs) using a glass microelectrode positioned in the stratum radiatum of area CA1. […] After 30 min of stable control responses, 1 and 10 μM solutions of the individual compounds were added to the perfusate for 3–12 h while recording the amplitude and area of the NMDAR-fEPSP on-line using WinLTP [31]. Single exponential curves were fitted to the graphs and curves extrapolated to show likely half-times and minimum plateau responses achieved with each concentration of the compounds. Raw data for all fEPSP experiments are provided as supporting information (S2, S3 and S4 Files).

Structure (SMILES)	Ki [1] [nM]	Ki (M3) [nM]	IC50 (Human SERT) [nM]	Ki (DAT [3]) [nM]	Ki (M2) [nM]	IC50 (NET [4]) [nM]	Hill slope NET reuptake inhibition (NET [4])	Ki (M1) [nM]	IC50 (DAT [5]) [nM]	Hill slope DAT reuptake inhibition (DAT [5])	IC50 [6] [nM]	Ki (Sigma 2) [nM]	Ki (M5) [nM]	also measured
Clc1ccccc1C(Cc1ccccc1)N1CCCCC1 (centres unmarked) [2-Cl-DPH, 2-Cl-diphenidine]	9.3 ± 1.3	615	> 10000	357	910	27100	1.02	278	10500	0.65	14.6 ± 2.1	474	291	Ki (Alpha2C): 1820 nM; NMDAR affinity (NMDAR [2]): pM affinity; affinities at muscarinic sites relative to NMDAR (M1; less than for NMDAR): 30 fold; Ki (KOR): 642 nM; Ki (MOR): 2060 nM; Ki (M4): 828 nM; Ki (Alpha2A): 2690 nM
COc1cccc(C(Cc2ccccc2)N2CCCCC2)c1 (centres unmarked) [3-MXP, 3-methoxy-diphenidine]	19.3 ± 1.7	2300	> 10000	88	2970	2710	0.95	2400	587	0.92	30.3 ± 2.6	633	1120	Ki (H3): 1470 nM; Ki (KOR): 2260 nM; Ki (H1): 2030 nM; Ki (NET [7]): 325 nM
COc1ccc(C(Cc2ccccc2)N2CCCCC2)cc1 (centres unmarked) [4-MXP, 4-methoxy-diphenidine]	461 ± 44.5	2400	19000	157	1620	22500	1.75	2430	2230	0.96	724 ± 69.9	564	2760	Ki (H3): 556 nM; Hill slope SERT reuptake inhibition (Human SERT; HEK293 cells): 1.12; Ki (Alpha2C): 2510 nM; affinity at DAT relative to NMDAR (DAT [3]; higher at DAT): ~ 2.5 fold; Ki (H1): 4530 nM; Ki (NET [7]): 2700 nM
c1ccc(C[C@H](c2ccccc2)N2CCCCC2)cc1 [(R)-DPH]	–	–	–	–	–	–	–	–	–	–	–	–	–	Ki (NMDAR [8]): 5250 nM
c1ccc(C[C@@H](c2ccccc2)N2CCCCC2)cc1 [(S-)-DPH]	–	–	–	–	–	–	–	–	–	–	–	–	–	Ki (NMDAR [8]): 120 nM
NC(CCCP(=O)(O)O)C(=O)O [D-AP5, reference compound]	–	–	–	–	–	–	–	–	–	–	–	–	–	small persistent deflection remaining of the NMDAR-fEPSP (NMDA receptor): < 20%
CNC1(c2ccccc2Cl)CCCCC1=O (centres unmarked) [Ketamine, ketamine, reference compound]	324 ± 19.2	–	–	–	–	–	–	–	–	–	508 ± 30.1	–	–	–
CC12CC3CC(C)(C1)CC(N)(C3)C2 [Memantine, memantine hydrochloride]	378 ± 26.3	–	–	–	–	–	–	–	–	–	594 ± 41.3	–	–	[3H]-MK-801 binding counts (Count1-3) ([1]; Assay 6, memantine concentration 1.00E-04): 54.75 and 56.13 and 57.01; [3H]-MK-801 binding counts (Count1-3) ([1]; Assay 6, memantine concentration 1.00E-05): 80 and 85.76 and 84.26; [3H]-MK-801 binding counts (Count1-3) ([1]; Assay 6, memantine concentration 1.00E-06): 302 and 309.15 and 302.79; [3H]-MK-801 binding counts (Count1-3) ([1]; Assay 6, memantine concentration 1.00E-07): 630.88 and 668.92 and 629.83; [3H]-MK-801 binding counts (Count1-3) ([1]; Assay 6, memantine concentration 1.00E-08): 740.13 and 745.68 and 749.23; [3H]-MK-801 binding counts (Count1-3) ([1]; Assay 6, memantine concentration 1.00E-09): 755.01 and 781.68 and 787.36; [3H]-MK-801 binding counts (Count1-3) ([1]; Assay 6, memantine concentration 1.00E-10): 758.88 and 769.56 and 771.23; [3H]-MK-801 binding counts (Count1-3) ([1]; Assay 6 duplicate, memantine concentration 1.00E-04): 49.38 and 49.13 and 46.88; [3H]-MK-801 binding counts (Count1-3) ([1]; Assay 6 duplicate, memantine concentration 1.00E-05): 91.38 and 89.51 and 86.76; [3H]-MK-801 binding counts (Count1-3) ([1]; Assay 6 duplicate, memantine concentration 1.00E-06): 307.63 and 313.65 and 307.54; [3H]-MK-801 binding counts (Count1-3) ([1]; Assay 6 duplicate, memantine concentration 1.00E-07): 637.88 and 639.55 and 638.34; [3H]-MK-801 binding counts (Count1-3) ([1]; Assay 6 duplicate, memantine concentration 1.00E-08): 730.14 and 762.94 and 750.86; [3H]-MK-801 binding counts (Count1-3) ([1]; Assay 6 duplicate, memantine concentration 1.00E-09): 757.26 and 761.06 and 761.99; [3H]-MK-801 binding counts (Count1-3) ([1]; Assay 6 duplicate, memantine concentration 1.00E-10): 762.51 and 773.44 and 773.61
